The results in this text go back to patent US20250171495A1, “MUTLI-TARGETED SERINE PROTEASE INHIBITORS FOR TREATMENT OF CANCER AND VIRAL INFECTION” (Washington University, priority 2023, published 2025).

Read-outs that look alike come from different tables or passages of the source. Some results are limits rather than exact numbers.

By IC50 is commonly meant the point on the concentration scale where inhibition reaches its midpoint.

Holding throughout (format): biochemical
For one assay, the target named is T1, matriptase (Homo sapiens, UniProt Q9Y5Y6).
T1 construct: purchased R&D Systems 3946-SEB-010
T1 sequence (Q9Y5Y6 615-855 limits assumed): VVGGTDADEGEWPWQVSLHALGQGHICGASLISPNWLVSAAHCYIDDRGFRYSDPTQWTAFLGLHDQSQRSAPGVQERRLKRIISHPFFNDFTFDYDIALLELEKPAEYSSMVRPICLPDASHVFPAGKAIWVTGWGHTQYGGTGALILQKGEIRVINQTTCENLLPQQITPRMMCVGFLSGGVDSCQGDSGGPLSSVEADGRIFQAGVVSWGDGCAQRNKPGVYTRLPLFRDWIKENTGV
Briefly: Fluorogenic kinetic enzyme inhibitor assay, matriptase.

The next assay deals with T2, hepsin (Homo sapiens, UniProt P05981).
T2 construct: purchased R&D Systems 4776-SE-010
As to the kind of experiment: Fluorogenic kinetic enzyme inhibitor assay, hepsin.

The target of a further assay is TMPRSS2 (Homo sapiens, UniProt O15393). Briefly: Fluorogenic kinetic enzyme inhibitor assay, TMPRSS2. Also noted: purchased Cusabio Technology CSB-YP023924HU.
Chain of TMPRSS2 (O15393 106-492 limits assumed): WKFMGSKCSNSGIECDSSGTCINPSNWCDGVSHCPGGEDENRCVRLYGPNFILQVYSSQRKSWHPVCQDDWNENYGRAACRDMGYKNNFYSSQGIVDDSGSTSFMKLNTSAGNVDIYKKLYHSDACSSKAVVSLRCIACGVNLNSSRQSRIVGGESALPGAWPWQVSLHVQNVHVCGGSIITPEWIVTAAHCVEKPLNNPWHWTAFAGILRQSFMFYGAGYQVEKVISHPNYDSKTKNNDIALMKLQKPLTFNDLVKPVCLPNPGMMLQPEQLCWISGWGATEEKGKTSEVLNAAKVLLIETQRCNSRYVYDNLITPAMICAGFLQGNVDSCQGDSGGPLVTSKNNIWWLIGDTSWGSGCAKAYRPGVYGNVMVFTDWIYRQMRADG

T2 sequence (P05981 163-417 limits assumed): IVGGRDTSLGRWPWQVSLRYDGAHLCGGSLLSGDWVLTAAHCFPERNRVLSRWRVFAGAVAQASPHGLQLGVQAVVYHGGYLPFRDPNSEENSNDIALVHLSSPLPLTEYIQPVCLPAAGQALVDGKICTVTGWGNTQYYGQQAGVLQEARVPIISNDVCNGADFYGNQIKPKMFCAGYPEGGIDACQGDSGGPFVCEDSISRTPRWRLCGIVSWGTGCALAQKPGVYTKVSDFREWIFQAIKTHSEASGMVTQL
T2 sequence (P05981 1-162 partner limits assumed): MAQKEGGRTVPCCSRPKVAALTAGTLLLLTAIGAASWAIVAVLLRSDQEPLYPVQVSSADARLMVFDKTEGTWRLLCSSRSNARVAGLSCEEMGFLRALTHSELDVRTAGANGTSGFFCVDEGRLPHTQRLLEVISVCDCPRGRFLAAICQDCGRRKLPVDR

Regarding `N=C(N)NCCC[C@H](NC(=O)[C@H](CCC(=O)OCc1ccccc1)NC(=O)OCc1ccccc1)C(=O)c1nc2ccccc2s1` [MF1169, benzyl (S)-4-[benzyl(oxycarbonylamino)]-4-[N-(S)-1-[(1,3-benzothiazol-2-yl)carbonyl]-4-guanidinobutylcarbamoyl] butyrate], the figures for the IC50 on matriptase (read-out: Matriptase IC50), on hepsin (read-out: Hepsin IC50) and at TMPRSS2 (read-out: TMPRSS2 IC50) were 290 nM, more than 20000 nM and 75 nM, respectively.
Consider `CC(=O)N1c2ccccc2C[C@H]1C(=O)N[C@@H](CCC(=O)OC1CCCCC1)C(=O)N[C@@H](Cc1ccc(F)cc1)C(=O)N[C@@H](CCCNC(=N)N)C(=O)c1nc2ccccc2s1` [MF1065, cyclohexyl (S)-4-[(S)-1-acetyl-2-indolinylcarbonylamino]-4-[N-(S)-2-(p-fluorophenyl)-1-[N-(S)-1-[(1,3-benzothiazol-2-yl)carbonyl]-4-guanidinobutylcarbamoyl]ethylcarbamoyl]butyrate], for which the IC50 on matriptase came to 3.49 nM; at hepsin it was 1.76 nM; against TMPRSS2 it was 0.062 nM.
For the molecule `CCC(C)[C@H](NC(C)=O)C(=O)N[C@@H](CCSC)C(=O)N[C@@H](Cc1ccccc1)C(=O)N[C@@H](CCCNC(=N)N)C(=O)c1nc2ccccc2s1` (stereo partly drawn) [MM4027-2, N-[(S)-3-(methylthio)-1-[N-(S)-1-[N-(S)-1-[(1,3-benzothiazol-2-yl)carbonyl]-4-guanidinobutylcarbamoyl]-2-phenylethylcarbamoyl]propyl](2S)-2-acetylamino-3-methylvaleramide], the figures for the IC50 at matriptase, on hepsin (read-out: Hepsin IC50) and at TMPRSS2 (read-out: TMPRSS2 IC50) were 0.51 nM, 1.31 nM and 2.96 nM, respectively.
As to `N=C(N)NCCC[C@H](NC(=O)[C@H](CCC1CCCCC1)NC(=O)OCC1c2ccccc2-c2ccccc21)C(=O)c1nc2ccccc2s1` [MF1149, (S)-3-cyclohexyl-1-[N-(S)-1-[(1,3-benzothiazol-2-yl)carbonyl]-4-guanidinobutylcarbamoyl] propyl (9H-fluoren-9-yl)methanecarbamate], the IC50 was 18 nM at matriptase (read-out: Matriptase IC50), 2310 nM on hepsin (read-out: Hepsin IC50) and more than 20000 nM at TMPRSS2 (read-out: TMPRSS2 IC50).
As for `CCC[C@H](NC(=O)OCC1c2ccccc2-c2ccccc21)C(=O)N[C@@H](CCCNC(=N)N)C(=O)c1nc2ccccc2s1` [MF1150, (S)-1-[N-(S)-1-[(1,3-benzothiazol-2-yl)carbonyl]-4-guanidinobutylcarbamoyl] butyl (9H-fluoren-9-yl)methanecarbamate], the IC50 on matriptase (read-out: Matriptase IC50) stood at 5.44 nM; at hepsin (read-out: Hepsin IC50), 29.5 nM; on TMPRSS2 (read-out: TMPRSS2 IC50), 19.3 nM.
Taken in the same sequence, the figures for `N=C(N)NCCC[C@H](NC(=O)[C@H](Cc1ccccc1)NC(=O)[C@H](CCC(N)=O)NS(=O)(=O)C1CC1)C(=O)c1nc2ccccc2s1` [MF1104, N-[(S)-1-[N-(S)-1-[(1,3-benzothiazol-2-yl)carbonyl]-4-guanidinobutylcarbamoyl]-2-phenylethyl](S)-2-(cyclopropylsulfonylamino) glutaramide] were 5.59 nM, 1.07 nM and 0.273 nM.
For the molecule `N=C(N)NCCC[C@H](NC(=O)[C@H](Cc1ccc2ccccc2c1)NC(=O)OCC1c2ccccc2-c2ccccc21)C(=O)c1nc2ccccc2s1` [MF2012, (S)-2-(2-naphthyl)-1-[N-(S)-1-[(1,3-benzothiazol-2-yl)carbonyl]-4-guanidinobutylcarbamoyl] ethyl (9H-fluoren-9-yl)methanecarbamate], the IC50 is more than 20000 nM at matriptase (read-out: Matriptase IC50) and 187 nM on TMPRSS2 (read-out: TMPRSS2 IC50).
With `CC(=O)N[C@@H](CO)C(=O)NCc1ccc(CC(=O)N[C@@H](CC(C)C)C(=O)N[C@@H](CCCNC(=N)N)C(=O)c2nc3ccccc3s2)cc1` [AJS3200, N-[(S)-1-[(1,3-benzothiazol-2-yl)carbonyl]-4-guanidinobutyl](S)-2-{[(p-{[(S)-2-acetylamino-3-hydroxypropionylamino]methyl}phenyl)methyl]carbonylamino}-4-methylvaleramide], the IC50 on matriptase (read-out: Matriptase IC50) came to 9.52 nM; at hepsin (read-out: Hepsin IC50), 2.81 nM; on TMPRSS2 (read-out: TMPRSS2 IC50), 0.376 nM.
Consider `N=C(N)NCCC[C@H](NC(=O)[C@H](Cc1ccccc1)NC(=O)[C@H](CCC(N)=O)NC(=O)OCc1ccccc1)C(=O)c1nc2ccccc2s1` [ZFH9141], for which the IC50 at matriptase (read-out: Matriptase IC50) stood at 1.02 nM; on hepsin (read-out: Hepsin IC50) it was 1.25 nM; on TMPRSS2 (read-out: TMPRSS2 IC50) it was 0.418 nM.
As to `N=C(N)NCCC[C@H](NC(=O)[C@H](Cc1ccc(F)c(F)c1)NC(=O)OCC1c2ccccc2-c2ccccc21)C(=O)c1nc2ccccc2s1` [MF1132, (S)-2-(3,4-difluorophenyl)-1-[N-(S)-1-[(1,3-benzothiazol-2-yl)carbonyl]-4-guanidinobutylcarbamoyl]ethyl (9H-fluoren-9-yl)methanecarbamate], the figures for the IC50 on matriptase (read-out: Matriptase IC50), at hepsin (read-out: Hepsin IC50) and on TMPRSS2 (read-out: TMPRSS2 IC50) were 144 nM, 231 nM and 28.6 nM, respectively.
In the same order, the values of `N=C(N)NCCC[C@H](NC(=O)[C@H](Cc1ccccc1)NC(=O)[C@H](CCC(N)=O)NS(=O)(=O)Cc1ccccc1)C(=O)c1nc2ccccc2s1` [MF1105, N-[(S)-1-[N-(S)-1-[(1,3-benzothiazol-2-yl)carbonyl]-4-guanidinobutylcarbamoyl]-2-phenylethyl](S)-2-(benzylsulfonylamino) glutaramide] are 1.48 nM, 0.31 nM and 0.07 nM.
With `N=C(N)NCCC[C@H](NC(=O)[C@@H](NC(=O)OCc1ccccc1)c1cccs1)C(=O)c1nc2ccccc2s1` [MF1177, (R)-[N-(S)-1-[(1,3-benzothiazol-2-yl)carbonyl]-4-guanidinobutylcarbamoyl] (2-thienyl)methyl-phenylmethanecarbamate], the results for the IC50 at matriptase (read-out: Matriptase IC50), on hepsin (read-out: Hepsin IC50) and on TMPRSS2 (read-out: TMPRSS2 IC50) were 37.6 nM, 6.07 nM and 0.211 nM, respectively.
`N=C(N)NCCC[C@H](NC(=O)[C@H](CCc1ccccc1)NC(=O)OCC1c2ccccc2-c2ccccc21)C(=O)c1nc2ccccc2s1` [MF1152, (S)-1-[N-(S)-1-[(1,3-benzothiazol-2-yl)carbonyl]-4-guanidinobutylcarbamoyl]-3-phenylpropyl (9H-fluoren-9-yl)methanecarbamate]: the results for the IC50 on matriptase (read-out: Matriptase IC50), on hepsin (read-out: Hepsin IC50) and on TMPRSS2 (read-out: TMPRSS2 IC50) were 47.4 nM, more than 20000 nM and 200 nM, respectively.
As for `N=C(N)NCCC[C@H](NC(=O)[C@H](Cc1ccc(F)cc1)NC(=O)OCC1c2ccccc2-c2ccccc21)C(=O)c1nc2ccccc2s1` [MF1131, (S)-2-(p-fluorophenyl)-1-[N-(S)-1-[(1,3-benzothiazol-2-yl)carbonyl]-4-guanidinobutylcarbamoyl]ethyl (9H-fluoren-9-yl)methanecarbamate], the IC50 at matriptase (read-out: Matriptase IC50) came to 967 nM; on hepsin (read-out: Hepsin IC50), 1130 nM; on TMPRSS2 (read-out: TMPRSS2 IC50), 14 nM.
On to `N=C(N)NCCC[C@H](NC(=O)[C@@H](NC(=O)OCc1ccccc1)C1Cc2ccccc2C1)C(=O)c1nc2ccccc2s1` [MF2008, (S)-(2-indanyl)[N-(S)-1-[(1,3-benzothiazol-2-yl)carbonyl]-4-guanidinobutylcarbamoyl] methyl-phenylmethanecarbamate], for which the IC50 worked out at 75.3 nM at matriptase (read-out: Matriptase IC50) and 0.303 nM at TMPRSS2 (read-out: TMPRSS2 IC50).
On to `CC(C)(C)C[C@H](NC(=O)OCc1ccccc1)C(=O)N[C@@H](CCCNC(=N)N)C(=O)c1nc2ccccc2s1` [MF2009, (S)-3,3-dimethyl-1-[N-(S)-1-[(1,3-benzothiazol-2-yl)carbonyl]-4-guanidinobutylcarbamoyl] butyl-phenylmethanecarbamate], for which the figures for the IC50 at matriptase (read-out: Matriptase IC50) and on TMPRSS2 (read-out: TMPRSS2 IC50) were more than 20000 nM and 614 nM, respectively.
Turning to `N=C(N)NCCC[C@H](NC(=O)[C@H](CCCCNC(=O)OCc1ccccc1Cl)NC(=O)OCC1c2ccccc2-c2ccccc21)C(=O)c1nc2ccccc2s1` [MF1151, (S)-5-{[(o-chlorophenyl)methyl] (oxycarbonylamino)}-1-[N-(S)-1-[(1,3-benzothiazol-2-yl)carbonyl]-4-guanidinobutylcarbamoyl] pentyl (9H-fluoren-9-yl)methanecarbamate], the IC50 was determined as 11.1 nM on matriptase (read-out: Matriptase IC50) and 283 nM at TMPRSS2 (read-out: TMPRSS2 IC50).
For the molecule `N=C(N)NCCC[C@H](NC(=O)[C@H](CCc1ccc(O)cc1)NC(=O)OCC1c2ccccc2-c2ccccc21)C(=O)c1nc2ccccc2s1` [MF1163, (S)-3-(p-hydroxyphenyl)-1-[N-(S)-1-[(1,3-benzothiazol-2-yl)carbonyl]-4-guanidinobutylcarbamoyl] propyl (9H-fluoren-9-yl)methanecarbamate], the IC50 at TMPRSS2 (read-out: TMPRSS2 IC50) was 0.167 nM.
For `CC(=O)N[C@@H](CCCCNC(=N)N)C(=O)N[C@@H](Cc1cncn1COCc1ccccc1)C(=O)N[C@@H](CCC(C)C)C(=O)N[C@@H](CCCNC(=N)N)C(=O)c1nc2ccccc2s1` [MM4031-2, N-[(S)-1-[(1,3-benzothiazol-2-yl)carbonyl]-4-guanidinobutyl](S)-2-[(S)-2-[(S)-1-acetylamino-5-guanidinopentylcarbonylamino]-3-{1-[(benzyloxy)methyl]-5-imidazolyl}propionylamino]-5-methylhexanamide], the concentration for half-maximal inhibition (IC50) on TMPRSS2 (read-out: TMPRSS2 IC50) stood at 9.39 nM.
For the molecule `N=C(N)NCCC[C@H](NC(=O)[C@H](Cc1ccccc1)NC(=O)[C@H](N)Cc1c[nH]c2ccccc12)C(=O)c1nc2ccc(C(=O)O)cc2s1` [PK-1-45A1, 2-[(S)-2-[(S)-2-[(R)-2-amino-3-(3-indolyl)propionylamino]-3-phenylpropionylamino]-5-guanidinovaleryl]-1,3-benzothiazole-6-carboxylic acid], the IC50 at TMPRSS2 (read-out: TMPRSS2 IC50) turned out to be 1.94 nM.
Regarding `CC(=O)NCC(=O)N[C@@H](CCC(N)=O)C(=O)N[C@@H](Cc1ccccc1)C(=O)N[C@H](CCCNC(=N)N)C(=O)c1nc2ccccc2s1` [MM3122-1, N-[(S)-1-[N-(R)-1-[(1,3-benzothiazol-2-yl)carbonyl]-4-guanidinobutylcarbamoyl]-2-phenylethyl](S)-2-[(acetylaminomethyl)carbonylamino]glutaramide], on TMPRSS2 (read-out: TMPRSS2 IC50), the IC50 turned out to be 6.46 nM.
